Structures can show the parent of a compound that is named as a salt.
Biological target: T1, human TRPC6 (Homo sapiens, UniProt Q9Y210)
T1 construct: expressed in transfected cells
T1 sequence (Q9Y210 1-931): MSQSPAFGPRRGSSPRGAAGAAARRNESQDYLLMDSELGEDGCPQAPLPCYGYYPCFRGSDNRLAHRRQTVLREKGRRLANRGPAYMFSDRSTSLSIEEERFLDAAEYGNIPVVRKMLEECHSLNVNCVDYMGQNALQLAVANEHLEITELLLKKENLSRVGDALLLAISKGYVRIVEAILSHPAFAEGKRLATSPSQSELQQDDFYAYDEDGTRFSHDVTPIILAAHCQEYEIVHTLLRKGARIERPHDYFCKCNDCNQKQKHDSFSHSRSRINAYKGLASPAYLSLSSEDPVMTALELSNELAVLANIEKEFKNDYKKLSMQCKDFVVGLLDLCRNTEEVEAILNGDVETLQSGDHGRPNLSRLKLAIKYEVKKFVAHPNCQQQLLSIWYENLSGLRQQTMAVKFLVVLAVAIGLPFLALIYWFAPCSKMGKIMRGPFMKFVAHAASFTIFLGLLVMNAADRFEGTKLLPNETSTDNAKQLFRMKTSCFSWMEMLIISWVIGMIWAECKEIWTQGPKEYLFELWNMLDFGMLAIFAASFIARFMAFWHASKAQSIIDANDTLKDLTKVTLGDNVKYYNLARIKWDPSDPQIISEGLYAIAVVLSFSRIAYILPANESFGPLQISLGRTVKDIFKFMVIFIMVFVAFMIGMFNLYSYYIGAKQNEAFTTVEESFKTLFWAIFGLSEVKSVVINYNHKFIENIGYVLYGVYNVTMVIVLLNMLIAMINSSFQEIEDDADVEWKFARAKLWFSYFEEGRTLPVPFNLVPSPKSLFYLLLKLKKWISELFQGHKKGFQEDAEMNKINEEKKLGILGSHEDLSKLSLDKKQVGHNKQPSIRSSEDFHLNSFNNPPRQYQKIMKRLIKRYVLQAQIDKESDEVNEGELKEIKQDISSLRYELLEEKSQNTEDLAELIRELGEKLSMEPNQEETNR
Assay: TRPC6 calcium flux assay (FLIPR, OAG-stimulated calcium influx)
Assay type: cell-based
Conditions: HEK293 cells stably transfected with human TRPC6, read-out: hTRPC6 Potency
Procedure, shortened: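 HEK293 cells stably expressing human TRPC6, loaded with calcium dye 90–120 min at RT, then given compound for 25 min before OAG (50 uM final, 0.5% DMSO) in HEPES buffer pH 7.2 with 2 mM CaCl2. Background-subtracted FLIPR peak over 180 s normalized to OAG vs buffer; IC50 from dose plot.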

Row | Structure (SMILES) | IC50
1 | N#Cc1ccc(Cn2c(N3CC[C@H](N)C3)nc3ccccc32)cc1 [Example 166, (S)-4-((2-(3-aminopyrrolidin-1-yl)-1H-benzo[d]imidazol-1-yl)methyl)benzonitrile] | 0.56 µM
2 | CN1CC[C@@H](n2c(N3CC[C@@H](F)[C@H](N)C3)nc3cc(F)c(F)cc32)C1=O [Example 246, (R)-3-(2-((3R,4R)-3-amino-4-fluoropiperidin-1-yl)-5,6-difluoro-1H-benzo[d]imidazol-1-yl)-1-methylpyrrolidin-2-one] | 2.92 µM
3 | N#Cc1cc(Cl)ccc1Cn1c(N2CCC[C@@H](N)C2)nc2ccccc21 [Example 397, (R)-2-((2-(3-aminopiperidin-1-yl)-1H-benzo[d]imidazol-1-yl)methyl)-5-chlorobenzonitrile] | 1.58 µM
4 | N[C@@H]1CN(c2nc3ccc(C(F)(F)F)cc3n2CC(=O)N2CCOCC2)CC[C@@H]1F [Example 464, 2-(2-((3R,4S)-3-amino-4-fluoropiperidin-1-yl)-6-(trifluoromethyl)-1H-benzo[d]imidazol-1-yl)-1-morpholinoethan-1-one] | 0.0631 µM
5 | N[C@@H]1CN(c2nc3ccc(F)cc3n2CC(=O)N(CC(F)(F)F)C2CC2)CC[C@H]1F [Example 662, 2-(2-((3R,4R)-3-amino-4-fluoropiperidin-1-yl)-6-fluoro-1H-benzo[d]imidazol-1-yl)-N-cyclopropyl-N-(2,2,2-trifluoroethyl)acetamide] | 0.283 µM
6 | COc1ccc(Cn2c(N3CCC[C@@H](N)C3)nc3ccccc32)cc1Cl [Example 393, (R)-1-(1-(3-chloro-4-methoxybenzyl)-1H-benzo[d]imidazol-2-yl)piperidin-3-amine] | 5.05 µM
7 | Cc1cc(Cn2c(N3CC[C@@H](F)[C@H](N)C3)nc3cc(F)c(F)cc32)on1 [Example 579, (3R,4R)-1-(5,6-difluoro-1-((3-methylisoxazol-5-yl)methyl)-1H-benzo[d]imidazol-2-yl)-4-fluoropiperidin-3-amine] | 0.312 µM
8 | CCN(C(=O)Cn1c(N2CC[C@@H](F)[C@H](N)C2)nc2cc(F)c(F)cc21)C1CCS(=O)(=O)C1 (mixture of isomers) [Example 527, 2-(2-((3R,4R)-3-amino-4-fluoropiperidin-1-yl)-5,6-difluoro-1H-benzo[d]imidazol-1-yl)-N-(1,1-dioxidotetrahydrothiophen-3-yl)-N-ethylacetamide] | 3.01 µM
9 | N[C@@H]1CN(c2nc3ccc(F)cc3n2CC(=O)NC2CCC2)CC[C@H]1F [Example 668, 2-(2-((3R,4R)-3-amino-4-fluoropiperidin-1-yl)-6-fluoro-1H-benzo[d]imidazol-1-yl)-N-cyclobutylacetamide] | 0.778 µM
10 | CN(C(=O)Cn1c(N2CC[C@@H](F)[C@H](N)C2)nc2ccc(F)cc21)[C@@H]1CCOC1 [Example 665, 2-(2-((3R,4R)-3-amino-4-fluoropiperidin-1-yl)-6-fluoro-1H-benzo[d]imidazol-1-yl)-N-methyl-N-((R)-tetrahydrofuran-3-yl)acetamide] | 0.584 µM
11 | CN(C)C(=O)Cn1c(N2CC[C@H](F)[C@H](N)C2)nc2cc(Cl)ccc21 [Example 471, 2-(2-((3R,4S)-3-amino-4-fluoropiperidin-1-yl)-5-chloro-1H-benzo[d]imidazol-1-yl)-N,N-dimethylacetamide] | 0.36 µM
12 | N#Cc1ccc(Cn2c(N3C[C@H]4NCCO[C@@H]4C3)nc3ccccc32)nc1 [Example 100, 6-((2-((4aR,7aR)-hexahydropyrrolo[3,4-b][1,4]oxazin-6(2H)-yl)-1H-benzo[d]imidazol-1-yl)methyl)nicotinonitrile] | 0.06 µM
13 | N#Cc1ccc(Cn2c(N3CC[C@H]4OCCN[C@@H]4C3)nc3ccccc32)nc1 [Example 131, 6-((2-((4aR,8aR)-hexahydro-2H-pyrido[4,3-b][1,4]oxazin-6(5H)-yl)-1H-benzimidazol-1-yl)methyl)-3-pyridinecarbonitrile] | 0.0826 µM
14 | N[C@@H]1CN(c2nc3ccc(F)cc3n2CC(=O)N2CCOC[C@@H]2C2CC2)CC[C@H]1F [Example 685, 2-(2-((3R,4R)-3-amino-4-fluoropiperidin-1-yl)-6-fluoro-1H-benzo[d]imidazol-1-yl)-1-((S)-3-cyclopropylmorpholino)ethan-1-one] | 1.16 µM
15 | N[C@@H]1CN(c2nc3cc(F)c(F)cc3n2CC(=O)N(Cc2cccs2)C2CCS(=O)(=O)C2)CC[C@H]1F (mixture of isomers) [Example 522, 2-(2-((3R,4R)-3-amino-4-fluoropiperidin-1-yl)-5,6-difluoro-1H-benzo[d]imidazol-1-yl)-N-(1,1-dioxidotetrahydrothiophen-3-yl)-N-(thiophen-2-ylmethyl)acetamide] | 0.762 µM

These reach a lower IC50. Values come first.

Row | IC50 | Structure (SMILES)
16 | 0.0574 µM | N[C@@H]1CN(c2nc3cc(F)c(F)cc3n2CC(=O)N2CC3CC2CO3)CC[C@H]1F (stereo partly drawn) [Example 619, 2-(2-((3R,4R)-3-amino-4-fluoropiperidin-1-yl)-5,6-difluoro-1H-benzo[d]imidazol-1-yl)-1-(2-oxa-5-azabicyclo[2.2.1]heptan-5-yl)ethanone]
17 | 0.0329 µM | N#Cc1ccc(Cn2c(N3CC[C@H](F)[C@H](N)C3)nc3c(C(F)(F)F)cccc32)nc1 [Example 91, 6-((2-((3R,4S)-3-amino-4-fluoropiperidin-1-yl)-4-(trifluoromethyl)-1H-benzo[d]imidazol-1-yl)methyl)nicotinonitrile]
18 | 0.0294 µM | CN(CC(F)(F)F)C(=O)Cn1c(N2CC[C@H](F)[C@H](N)C2)nc2ccc(F)cc21 [Example 462, 2-(2-((3R,4S)-3-amino-4-fluoropiperidin-1-yl)-6-fluoro-1H-benzo[d]imidazol-1-yl)-N-methyl-N-(2,2,2-trifluoroethyl)acetamide]
19 | 0.0142 µM | N#Cc1ccc(Cn2c(N3CC4CCC(N)C4C3)nc3ccccc32)cc1 (stereo not shown) [Example 169, 4-((2-(4-aminohexahydrocyclopenta[c]pyrrol-2(1H)-yl)-1H-benzo[d]imidazol-1-yl)methyl)benzonitrile]
20 | 0.00606 µM | N#Cc1cc(F)cc2c1nc(N1CCC(F)(F)[C@H](N)C1)n2Cc1ncc(Cl)cn1 [Example 151, (R)-2-(3-amino-4,4-difluoropiperidin-1-yl)-1-((5-chloropyrimidin-2-yl)methyl)-6-fluoro-1H-benzo[d]imidazole-4-carbonitrile]
21 | 0.00236 µM | N#Cc1ccc(Cn2c(N3CCC[C@H](N)C3)nc3ccc(F)cc32)nc1 [Example 45, (S)-6-((2-(3-aminopiperidin-1-yl)-6-fluoro-1H-benzo[d]imidazol-1-yl)methyl)nicotinonitrile hydrochloride]
22 | 0.00216 µM | N#Cc1ccc2c(c1)CC[C@@H]2n1c(N2CC[C@@H](F)[C@H](N)C2)nc2ccccc21 [Example 232, (S)-1-(2-((3R,4R)-3-amino-4-fluoropiperidin-1-yl)-1H-benzo[d]imidazol-1-yl)-2,3-dihydro-1H-indene-5-carbonitrile hydrochloride]
23 | 0.00133 µM | COc1ccc2nc(N3CCC[C@H](N)C3)n(Cc3ccc(C#N)cc3)c2c1 [Example 402, (S)-4-((2-(3-aminopiperidin-1-yl)-6-methoxy-1H-benzo[d]imidazol-1-yl)methyl)benzonitrile hydrochloride]
24 | 0.000986 µM | C[C@@H](c1ccc(Cl)cn1)n1c(N2CC[C@@H](F)[C@H](N)C2)nc2cc(Cl)ccc21 [Example 220, (3R,4R)-1-(5-chloro-1-((S)-1-(5-chloropyridin-2-yl)ethyl)-1H-benzo[d]imidazol-2-yl)-4-fluoropiperidin-3-amine hydrochloride]
25 | 0.00082 µM | C[C@@H](c1ccc(Cl)cn1)n1c(N2CC[C@@H](F)[C@H](N)C2)nc2cc(F)c(F)cc21 [Example 218, (3R,4R)-1-(1-((S)-1-(5-chloropyridin-2-yl)ethyl)-5,6-difluoro-1H-benzo[d]imidazol-2-yl)-4-fluoropiperidin-3-amine hydrochloride]
26 | 0.00072 µM | N#Cc1ccc(Cn2c(N3CC[C@@H](F)[C@H](N)C3)nc3ccccc32)nc1 [Example 38, 6-((2-((3R,4R)-3-amino-4-fluoropiperidin-1-yl)-1H-benzo[d]imidazol-1-yl)methyl)nicotinonitrile]
27 | 0.000476 µM | N#Cc1cc(F)cc2c1nc(N1CC[C@@H](F)[C@H](N)C1)n2Cc1ncc(Cl)cn1 [Example 31, 2-((3R,4R)-3-amino-4-fluoropiperidin-1-yl)-1-((5-chloropyrimidin-2-yl)methyl)-6-fluoro-1H-benzo[d]imidazole-4-carbonitrile]
28 | 0.000433 µM | COc1ccc2nc(N3CC[C@H](F)[C@H](N)C3)n(Cc3ccc(C#N)cn3)c2c1 [Example 147, 6-((2-((3R,4S)-3-amino-4-fluoropiperidin-1-yl)-6-methoxy-1H-benzo[d]imidazol-1-yl)methyl)nicotinonitrile hydrochloride]

From US11332459B2 (TEIJIN PHARMA LIMITED, priority 2017, dated 2022)
